From paper PMC11879280, “Antimicrobial activity of peptoids against Metallo-β-lactamase-producing Klebsiella pneumoniae, Acinetobacter baumannii, Pseudomonas aeruginosa, and other WHO priority pathogens, including Candida auris” (Journal of Applied Microbiology, 2025)
Like-named read-outs stand apart in the source and are kept apart here. Square brackets hold non-standard residues; d marks the D form. Peptide text beside a SMILES is read from it. Nspe(4-Br) = C[C@H](NCC(=O)O)c1ccc(Br)cc1; Nspe = C[C@H](NCC(=O)O)c1ccccc1; Nlys = NCCCCNCC(=O)O

Assays:
Enterobacteriaceae = assay: Geometric mean MIC, therapeutic index and selectivity ratio, Enterobacteriaceae; format: cell-based; details: Enterobacteriaceae (E. coli, K. pneumoniae, and E. aerogenes)
Procedure: (§1) Briefly, bacteria were suspended in cation-adjusted Mueller–Hinton broth (CAMHB; Oxoid, UK) for antibiotics, or MHB (Oxoid, UK) for peptidomimetics to obtain 5 × 10^5 colony forming unit (CFU) ml^−1. […] Positive controls contained only microbes, and blanks contained only media. Microbial suspensions (100 µl) were added to wells, plates wrapped, and incubated at 37°C, 120 rpm for 16–20 h. After incubation, suspensions were removed, log10 diluted, and plated on Trypticase Soya Agar with phosphatidylcholine and Tween 80 to determine minimum bactericidal or fungicidal concentration (MBC or MFC). […] Geometric mean MIC of the peptoids were calculated to evaluate the broad overview of antimicrobial activity across the pathogens.
(§2) The therapeutic indices (TIs) of the compounds were calculated with the use of following formula: […]

[1] = system: horse red blood cells (RBCs); assay: Haemolysis assay; format: cell-based
Procedure: The haemolytic activity of the peptidomimetics was performed to determine mammalian cell safety. This assay used horse red blood cells (RBCs) (Sigma–Aldrich, USA) as described previously (Willcox et al. [2008], Chongsiriwatana et al. [2017], Yasir et al. [2019b]). RBCs were washed three times with PBS at 470 g for 5 min. Peptoids (0.5–250 μg ml^−1) were prepared in PBS and added to washed RBCs, then incubated at 37°C for 4 h. After incubation, cells were centrifuged at 1057 g for 10 min, and the supernatant’s OD at 540 nm was measured for lysis. PBS-only RBCs served as the negative control (no haemolysis), and Milli-Q water-treated RBCs as the positive control (100% lysis). Percent haemolysis was calculated as: (ODT − ODNC)/(ODPC − ODNC) × 100, where ODT, ODNC, and ODPC are the absorbances of the test, negative, and positive controls, respectively. This experiment was performed in triplicate.

E. coli 0011 = system: E. coli 0011
Outline: (§3)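 Cation-adjusted MHB for antibiotics, plain MHB for peptidomimetics; 5 × 10^5 CFU ml^−1; 16–20 h at 37°C, 120 rpm. Geometric mean MIC across pathogens calculated for peptoids.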

P. aeruginosa AR-1270 = system: P. aeruginosa AR-1270
Outline: as §3

En. cloacae 005 = system: En. cloacae 005
Outline: as §3

A. baumannii 006 = system: A. baumannii 006
Outline: as §3

S. aureus 117 = system: S. aureus 117
Outline: as §3

A. baumannii ATCC 19 606 = system: A. baumannii ATCC 19 606
Outline: as §3

K. pneumoniae JIE4212 = system: K. pneumoniae JIE4212
Outline: as §3

K. pneumoniae JIE2713 = system: K. pneumoniae JIE2713
Outline: as §3

En. cloacae 001 = system: En. cloacae 001
Outline: as §3

S. aureus 105 = system: S. aureus 105
Outline: as §3

A. baumannii 005 = system: A. baumannii 005
Outline: as §3

S. aureus 38 = system: S. aureus 38
Outline: as §3

[2] = system: Enteroc. faecalis NCTC 13 379
Outline: as §3

[3] = system: ESKAPEE pathogens (all bacteria); assay: Geometric mean MIC, therapeutic index and selectivity ratio, all bacteria; format: cell-based; details: for Geometric mean MIC, all bacteria: across the 23 ESKAPEE strains
Procedure: as §1, §2

C. auris CBS12373 = assay: Broth microdilution MIC; format: cell-based, Candida auris
MBL-producing bacteria = assay: Geometric mean MIC, therapeutic index and selectivity ratio, MBL-producing bacteria; format: cell-based
Procedure: as §1
The test was performed as per the manufacturer’s instructions. Briefly, the strips were applied to a lawn culture of bacteria maintained at 1.5 × 10^8 CFU ml^−1 on Mueller–Hinton agar (Oxoid, UK) and incubated for 20 h at 37°C.
as §2

[4] = E. coli 0011, MHB (melimine/Mel4 with 0.2% BSA, 0.01% acetic acid), mean MIC
[5] = P. aeruginosa AR-1270, MHB (melimine/Mel4 with 0.2% BSA, 0.01% acetic acid), mean MIC
[6] = En. cloacae 005, MHB (melimine/Mel4 with 0.2% BSA, 0.01% acetic acid), mean MIC
[7] = A. baumannii 006, MHB (melimine/Mel4 with 0.2% BSA, 0.01% acetic acid), mean MIC
[8] = S. aureus 117, MHB (melimine/Mel4 with 0.2% BSA, 0.01% acetic acid), mean MIC
[9] = A. baumannii ATCC 19 606, MHB (melimine/Mel4 with 0.2% BSA, 0.01% acetic acid), mean MIC
[10] = K. pneumoniae JIE4212, MHB (melimine/Mel4 with 0.2% BSA, 0.01% acetic acid), mean MIC
[11] = K. pneumoniae JIE2713, MHB (melimine/Mel4 with 0.2% BSA, 0.01% acetic acid), mean MIC
[12] = En. cloacae 001, MHB (melimine/Mel4 with 0.2% BSA, 0.01% acetic acid), mean MIC
[13] = S. aureus 105, MHB (melimine/Mel4 with 0.2% BSA, 0.01% acetic acid), mean MIC
[14] = A. baumannii 005, MHB (melimine/Mel4 with 0.2% BSA, 0.01% acetic acid), mean MIC
[15] = S. aureus 38, MHB (melimine/Mel4 with 0.2% BSA, 0.01% acetic acid), mean MIC
[16] = Enteroc. faecalis NCTC 13 379, MHB (melimine/Mel4 with 0.2% BSA, 0.01% acetic acid), mean MIC
[17] = CBS 10 913, RPMI 1640 with MOPS, 5 × 10^3 CFU ml^−1, ≥90% reduction (≥50% for fluconazole)
[18] = CBS 12 373, RPMI 1640 with MOPS, 5 × 10^3 CFU ml^−1, ≥90% reduction (≥50% for fluconazole)

## C[C@@H](c1ccc(Br)cc1)N(CC(=O)N(CCCCN)CC(=O)N(CC(=O)N(CC(=O)N(CCCCN)CC(N)=O)[C@@H](C)c1ccc(Br)cc1)[C@@H](C)c1ccccc1)C(=O)CN(C(=O)CNCCCCN)[C@@H](C)c1ccccc1 [TM12] (H-[Nlys][Nspe][Nspe(4-Br)][Nlys][Nspe][Nspe(4-Br)][Nlys]-NH2)
Enterobacteriaceae
  Geometric mean MICE: 47.4 µg/mL
[1]
  HD10 (10% haemolytic dose): 66.4 µmol/L
  HD50 (50% haemolytic dose): 212.6 µmol/L
[1]; red cells of horse, 4 h
  HD10 (10% haemolytic dose): 80 µg/mL
  HD50 (50% haemolytic dose): > 256 µg/mL
E. coli 0011; 0011
  MIC of peptidomimetics: 25.9 µM
E. coli 0011; [4]
  MIC of peptidomimetics: 31.3 µg/mL
P. aeruginosa AR-1270; AR-1270
  MIC of peptidomimetics: 103.8 µM
P. aeruginosa AR-1270; [5]
  MIC of peptidomimetics: 125 µg/mL
En. cloacae 005
  MIC of peptidomimetics: 13.0 µM
En. cloacae 005; [6]
  MIC of peptidomimetics: 15.6 µg/mL
A. baumannii 006; 006
  MIC of peptidomimetics: 103.8 µM
A. baumannii 006; [7]
  MIC of peptidomimetics: 125 µg/mL
S. aureus 117; 117
  MIC of peptidomimetics: 3.3 µM
S. aureus 117; [8]
  MIC of peptidomimetics: 3.9 µg/mL
A. baumannii ATCC 19 606; [9]
  MIC of peptidomimetics: 125 µg/mL
A. baumannii ATCC 19 606; ATCC 19
  MIC of peptidomimetics: 103.8 µM
K. pneumoniae JIE4212; JIE4212
  MIC of peptidomimetics: 103.8 µM
K. pneumoniae JIE4212; [10]
  MIC of peptidomimetics: 125 µg/mL
K. pneumoniae JIE2713; JIE2713
  MIC of peptidomimetics: 103.8 µM
K. pneumoniae JIE2713; [11]
  MIC of peptidomimetics: 125 µg/mL
En. cloacae 001
  MIC of peptidomimetics: 13.0 µM
En. cloacae 001; [12]
  MIC of peptidomimetics: 15.6 µg/mL
S. aureus 105; 105
  MIC of peptidomimetics: 6.5 µM
S. aureus 105; [13]
  MIC of peptidomimetics: 7.8 µg/mL
A. baumannii 005; 005
  MIC of peptidomimetics: 51.8 µM
A. baumannii 005; [14]
  MIC of peptidomimetics: 62.5 µg/mL
S. aureus 38; 38
  MIC of peptidomimetics: 6.5 µM
S. aureus 38; [15]
  MIC of peptidomimetics: 7.8 µg/mL
[2]; [16]
  MIC of peptidomimetics: 7.8 µg/mL
[2]; NCTC 13
  MIC of peptidomimetics: 6.5 µM
C. auris CBS10913; [17]
  MIC against C. auris: 62.5 µg/mL
C. auris CBS10913; CBS10913
  MIC against C. auris: 51.9 µM
[3]
  Geometric mean MIC, all bacteria: 31.2 µg/mL
[3]; value in brackets
  Geometric mean MIC, all bacteria: 26.0 µM
[3]; bacteria
  Fold increase in geometric mean MIC relative to TM4: 3 fold
C. auris CBS12373; [18]
  MIC against C. auris: 3.9 µg/mL
C. auris CBS12373; CBS12373
  MIC against C. auris: 3.2 µM
MBL-producing bacteria
  Geometric mean MICMBL: 62.5 µg/mL

## C[C@@H](c1ccc(Br)cc1)N(CC(=O)N(CCCCN)CC(=O)N(CC(=O)N(CC(=O)N(CCCCN)CC(N)=O)[C@@H](C)c1ccc(Br)cc1)[C@@H](C)c1ccc(Br)cc1)C(=O)CN(C(=O)CNCCCCN)[C@@H](C)c1ccc(Br)cc1 [TM14] (H-[Nlys][Nspe(4-Br)][Nspe(4-Br)][Nlys][Nspe(4-Br)][Nspe(4-Br)][Nlys]-NH2)
Enterobacteriaceae
  Geometric mean MICE: 31.3 µg/mL
[1]
  HD10 (10% haemolytic dose): 7.0 µmol/L
  HD50 (50% haemolytic dose): 17.6 µmol/L
[1]; red cells of horse, 4 h
  HD10 (10% haemolytic dose): 9.6 µg/mL
  HD50 (50% haemolytic dose): 24 µg/mL
E. coli 0011; 0011
  MIC of peptidomimetics: 23.0 µM
E. coli 0011; [4]
  MIC of peptidomimetics: 31.3 µg/mL
P. aeruginosa AR-1270; AR-1270
  MIC of peptidomimetics: 45.9 µM
P. aeruginosa AR-1270; [5]
  MIC of peptidomimetics: 62.5 µg/mL
En. cloacae 005
  MIC of peptidomimetics: 45.9 µM
En. cloacae 005; [6]
  MIC of peptidomimetics: 62.5 µg/mL
A. baumannii 006; 006
  MIC of peptidomimetics: 11.4 µM
A. baumannii 006; [7]
  MIC of peptidomimetics: 15.6 µg/mL
S. aureus 117; 117
  MIC of peptidomimetics: 5.7 µM
S. aureus 117; [8]
  MIC of peptidomimetics: 7.8 µg/mL
A. baumannii ATCC 19 606; [9]
  MIC of peptidomimetics: 31.3 µg/mL
A. baumannii ATCC 19 606; ATCC 19
  MIC of peptidomimetics: 23.0 µM
K. pneumoniae JIE4212; JIE4212
  MIC of peptidomimetics: 23.0 µM
K. pneumoniae JIE4212; [10]
  MIC of peptidomimetics: 31.3 µg/mL
K. pneumoniae JIE2713; JIE2713
  MIC of peptidomimetics: 5.7 µM
K. pneumoniae JIE2713; [11]
  MIC of peptidomimetics: 7.8 µg/mL
En. cloacae 001
  MIC of peptidomimetics: 11.5 µM
En. cloacae 001; [12]
  MIC of peptidomimetics: 15.6 µg/mL
S. aureus 105; 105
  MIC of peptidomimetics: 2.9 µM
S. aureus 105; [13]
  MIC of peptidomimetics: 3.9 µg/mL
A. baumannii 005; 005
  MIC of peptidomimetics: 11.4 µM
A. baumannii 005; [14]
  MIC of peptidomimetics: 15.6 µg/mL
S. aureus 38; 38
  MIC of peptidomimetics: 2.9 µM
S. aureus 38; [15]
  MIC of peptidomimetics: 3.9 µg/mL
[2]; [16]
  MIC of peptidomimetics: 7.8 µg/mL
[2]; NCTC 13
  MIC of peptidomimetics: 5.7 µM
C. auris CBS10913; [17]
  MIC against C. auris: 15.6 µg/mL
C. auris CBS10913; CBS10913
  MIC against C. auris: 11.5 µM
[3]
  Geometric mean MIC, all bacteria: 19.9 µg/mL
[3]; value in brackets
  Geometric mean MIC, all bacteria: 14.6 µM
C. auris CBS12373; [18]
  MIC against C. auris: 3.9 µg/mL
C. auris CBS12373; CBS12373
  MIC against C. auris: 2.9 µM
MBL-producing bacteria
  Geometric mean MICMBL: 24.1 µg/mL
